Results as given in patent publication US20060099712A1, “Correlation of anti-cancer activity of dyes with redox potentials” (Eastman Kodak Company, priority 2004, published 2006).

Test: Electrochemical reduction potential (Er) measurement, SHACV / fast scan CV
Format: physicochemical
Settings: for Er: Table XIX, reduction potential vs. Ag/AgCl, in V (unit assumed)
From the text: In the practice of this invention the reduction potential of a given dye may be determined in various ways. If available, the published reduction potential may be employed. Reduction potentials for numerous cyanine and merocyanine dyes are available in the literature. (See J. Lenhard, Journal of Imaging Science, vol. 30 pp. 27-35 (1986).) A large amount of data has been generated on the reduction and oxidation potentials of these dyes from their use in photography and related arts where they are employed, inter alia, as spectral sensitizers.
If a published reduction potential is not available, suitable techniques for measuring reduction potential are available. Accurate electrochemical oxidation and reduction potentials for these organic dyes can be measured by the techniques of fast scan cyclic voltommetry (CV) or second harmonic ac voltommetry (SHACV). SHACV measurements are made as described by Lenhard in the Journal of Imaging Science volume 30, 1986 pp 27-35 using a commercially available (Princeton Applied Research Corp.) potentiostat in conjunction with voltage programmer, a conventional lock-in amplifier, and a low-distortion oscillator. The SHACV method utilizes an ac voltage waveform (of a frequency greater than or equal to 400 hz) that is superimposed on a DC potential ramp. On the other hand, the measurement of the oxidation or reduction potential by the CV method utilizes a (high frequency) triangular voltage waveform. The general procedures for measuring potentials by this method have been described by Wightman in Analytical Chemistry, 1984, vol. 56, pp524 and Journal of Physical Chemistry, 1984, vol. 88, pp3915. The specific application of this technique to the measurement of cyanine dye potentials has been reported by Nomura and Okazaki, Chemistry Letters, 1990, pp2231-2234. Commercial instrumentation especially designed for fast scan (i.e., high frequency) CV is available. It is noteworthy that because of the complicated nature of many of the cyanine dyes, electrochemical reactions, conventional slow scan cyclic voltommetry or polarography methods (as described by R. Large in Photographic Sensitivity, R. Cox, ed., Academic Press, New York, 1973, pp 241-263) provide only approximate values for oxidation and reduction potentials. Errors as large as 0.4 V from the true potential can be obtained by using slow scan CV or electrochemical methods.
The procedure for measuring the oxidation or reduction potential by the SHACV or fast scan CV method utilizes solutions of acetonitrile (or similar nonaqueous solvent) with added tetrabutylammonium tetrafluoroborate TBABF4 at a concentration of 0.1 M and ca. 5×10^−4 M of the cyanine, oxonol, or merocyanine dye. For measurement of the reduction potential the solution must be deaerated with argon prior to examination. The preferred working electrode is a Pt disk (ca. 0.02 cm^2) that is polished with 1 μm diamond paste, rinsed with water, and dried before each experiment. The reference electrode is a NaCl saturated calomel electrode. The cell and reference electrodes are maintained at 22 C. A value of 40 mV is added to the measured potentials to convert the number to that corresponding to an Ag/AgCl reference electrode. If a solvent other than acetonitrile is used then the measured potential must be referenced to a standard organic redox system such as ferrocene and corrected accordingly.
SHACV (Second Harmonic Alternating Current Voltametry) measurements are made as described by Lenhard in the Journal of Imaging Science volume 30, 1986 pp 27-35 using a commercially available (Princeton Applied Research Corp.) potentiostat in conjunction with voltage programmer, a conventional lock-in amplifier, and a low-distortion oscillator. The SHACV method utilizes an ac voltage waveform (of a frequency greater than or equal to 400 hz) that is superimposed on a DC potential ramp. […]

Er | ER(v), electrochemical reduction potential | SMILES
−0.920 |  | CCN1/C(=C/C=C/c2sc3cc4ccccc4cc3[n+]2CC)Sc2cc3ccccc3cc21 [Dye D-109]
−0.920 |  | CCN1/C(=C/C=C/c2sc3cc4ccccc4cc3[n+]2CC)Sc2cc3ccccc3cc21 [Dye D-160]
−0.808 | −.808 V | CCN1C(=CC=Cc2sc3cc4ccccc4nc3[n+]2CC)Sc2cc3ccccc3nc21 [Dye D-150]

Further lines, the molecule ahead of its results:

SMILES | Er | ER(v), electrochemical reduction potential
COc1cccc2c1C(=O)c1c(O)c3c(c(O)c1C2=O)C[C@@](O)(C(=O)CO)C[C@@H]3O[C@H]1C[C@H](N)[C@H](O)[C@H](C)O1 [Adriamycin, reference compound] |  | −0.68 V
CCN1/C(=C/C=C/c2sc3ccccc3[n+]2CC)Sc2ccccc21.[I-] [Dye D-101] | −1.060 | −1.06 V
CCN1C(=CC=Cc2sc3cc4ccccc4cc3[n+]2CC)Sc2cc3ccccc3cc21 [AC-2] |  | −.920 V
CCN1/C(=C\C=C\C2=[N+](CC)c3ccccc3C2(C)C)C(C)(C)c2ccccc21 [Dye D-103] | −1.000 | 
